Laboratory results published in ChEMBL document CHEMBL5678810.

Legend:
[1] = target: Peripheral plasma membrane protein CASK (Homo sapiens) (UniProt O14936); test: Inhibition of T7 bacteriophage fused human CASK at 10 uM by KINOMEscan analysis relative to control
[2] = target: Serine/threonine-protein kinase Sgk3 (Homo sapiens) (UniProt Q96BR1); test: Inhibition of T7 bacteriophage fused human SGK3 at 10 uM by KINOMEscan analysis relative to control
[3] = target: SRSF protein kinase 1 (Homo sapiens) (UniProt Q96SB4); test: Inhibition of T7 bacteriophage fused human SRPK1 at 10 uM by KINOMEscan analysis relative to control
[4] = target: SNF-related serine/threonine-protein kinase (Homo sapiens) (UniProt Q9NRH2); test: Inhibition of T7 bacteriophage fused human SNRK at 10 uM by KINOMEscan analysis relative to control
[5] = target: Tyrosine-protein kinase Srms (Homo sapiens) (UniProt Q9H3Y6); test: Inhibition of T7 bacteriophage fused human SRMS at 10 uM by KINOMEscan analysis relative to control
[6] = target: Serine/threonine-protein kinase 35 (Homo sapiens) (UniProt Q8TDR2); test: Inhibition of T7 bacteriophage fused human STK35 at 10 uM by KINOMEscan analysis relative to control
[7] = target: Serine/threonine-protein kinase SIK2 (Homo sapiens) (UniProt Q9H0K1); test: Inhibition of T7 bacteriophage fused human SIK2 at 10 uM by KINOMEscan analysis relative to control
[8] = target: Ribosomal protein S6 kinase alpha-6 (Homo sapiens) (UniProt Q9UK32); test: Inhibition of T7 bacteriophage fused human N-terminal RSK4 Kinase domain-1 at 10 uM by KINOMEscan analysis relative to control
[9] = target: T1, Serine/threonine-protein kinase ULK1 (Homo sapiens) (UniProt O75385); test: Inhibition of T7 bacteriophage fused human ULK1 at 10 uM by KINOMEscan analysis relative to control
T1 sequence (whole entry): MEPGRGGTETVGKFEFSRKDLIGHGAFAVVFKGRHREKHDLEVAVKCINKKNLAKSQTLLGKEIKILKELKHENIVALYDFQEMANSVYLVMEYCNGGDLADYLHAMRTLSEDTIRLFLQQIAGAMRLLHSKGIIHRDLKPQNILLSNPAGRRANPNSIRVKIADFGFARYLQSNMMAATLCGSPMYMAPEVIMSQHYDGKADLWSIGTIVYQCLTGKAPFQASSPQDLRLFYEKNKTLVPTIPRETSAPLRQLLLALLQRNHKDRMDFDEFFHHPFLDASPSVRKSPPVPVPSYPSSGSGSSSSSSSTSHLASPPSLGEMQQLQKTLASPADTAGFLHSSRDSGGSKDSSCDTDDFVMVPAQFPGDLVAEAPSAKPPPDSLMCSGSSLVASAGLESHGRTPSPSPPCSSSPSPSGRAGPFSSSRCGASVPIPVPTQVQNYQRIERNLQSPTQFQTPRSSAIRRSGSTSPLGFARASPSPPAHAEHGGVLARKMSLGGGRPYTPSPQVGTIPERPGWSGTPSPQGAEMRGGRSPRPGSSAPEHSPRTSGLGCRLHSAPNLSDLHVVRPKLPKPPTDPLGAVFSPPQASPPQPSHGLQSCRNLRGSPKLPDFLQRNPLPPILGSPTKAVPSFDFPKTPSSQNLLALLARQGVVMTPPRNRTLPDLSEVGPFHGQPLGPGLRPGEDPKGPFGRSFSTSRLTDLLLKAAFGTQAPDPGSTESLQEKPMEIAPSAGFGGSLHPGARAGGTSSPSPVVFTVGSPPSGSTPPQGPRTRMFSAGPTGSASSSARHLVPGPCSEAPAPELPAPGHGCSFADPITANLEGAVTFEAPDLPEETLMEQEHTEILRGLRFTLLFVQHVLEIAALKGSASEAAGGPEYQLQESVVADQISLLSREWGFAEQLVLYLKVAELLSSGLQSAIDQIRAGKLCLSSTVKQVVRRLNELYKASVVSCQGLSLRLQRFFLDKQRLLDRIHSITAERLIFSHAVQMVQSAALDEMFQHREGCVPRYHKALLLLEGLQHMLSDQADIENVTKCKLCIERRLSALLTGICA

[10] = target: NT-3 growth factor receptor (Homo sapiens) (UniProt Q16288); test: Inhibition of T7 bacteriophage fused human TRKC at 10 uM by KINOMEscan analysis relative to control
[11] = target: Serine/threonine-protein kinase tousled-like 2 (Homo sapiens) (UniProt Q86UE8); test: Inhibition of T7 bacteriophage fused human TLK2 at 10 uM by KINOMEscan analysis relative to control
[12] = target: Non-receptor tyrosine-protein kinase TYK2 (Homo sapiens) (UniProt P29597); test: Inhibition of T7 bacteriophage fused human TYK2 JH1 catalytic domain at 10 uM by KINOMEscan analysis relative to control
[13] = Inhibition of T7 bacteriophage fused Plasmodium falciparum CDPK1 at 10 uM by KINOMEscan analysis relative to control; details: condition cancer
[14] = target: T2, Serine/threonine-protein kinase TBK1 (Homo sapiens) (UniProt Q9UHD2); test: Inhibition of T7 bacteriophage fused human TBK1 at 10 uM by KINOMEscan analysis relative to control
T2 sequence (whole entry): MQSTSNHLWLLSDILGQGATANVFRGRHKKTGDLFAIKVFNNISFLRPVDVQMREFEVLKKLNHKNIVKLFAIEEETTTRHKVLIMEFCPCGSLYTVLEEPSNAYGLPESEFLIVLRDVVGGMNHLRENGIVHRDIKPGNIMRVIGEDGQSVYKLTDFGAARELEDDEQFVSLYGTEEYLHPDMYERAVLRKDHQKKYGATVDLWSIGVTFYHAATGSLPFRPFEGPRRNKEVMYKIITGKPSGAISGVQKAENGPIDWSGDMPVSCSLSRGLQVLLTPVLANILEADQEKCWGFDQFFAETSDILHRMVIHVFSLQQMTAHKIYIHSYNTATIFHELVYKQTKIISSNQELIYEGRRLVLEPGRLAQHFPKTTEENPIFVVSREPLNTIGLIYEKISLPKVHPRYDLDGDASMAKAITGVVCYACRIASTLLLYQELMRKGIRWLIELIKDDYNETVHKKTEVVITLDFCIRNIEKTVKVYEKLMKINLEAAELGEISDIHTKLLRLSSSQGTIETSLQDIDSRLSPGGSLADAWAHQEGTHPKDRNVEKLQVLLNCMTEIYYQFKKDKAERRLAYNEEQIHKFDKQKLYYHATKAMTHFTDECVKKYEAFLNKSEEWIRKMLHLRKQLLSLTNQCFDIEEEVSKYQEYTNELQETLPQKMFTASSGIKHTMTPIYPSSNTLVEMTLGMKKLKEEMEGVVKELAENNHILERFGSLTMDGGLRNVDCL

Chain of Ribosomal protein S6 kinase alpha-6 (Homo sapiens) (Q9UK32 whole entry, the tested form may be a part): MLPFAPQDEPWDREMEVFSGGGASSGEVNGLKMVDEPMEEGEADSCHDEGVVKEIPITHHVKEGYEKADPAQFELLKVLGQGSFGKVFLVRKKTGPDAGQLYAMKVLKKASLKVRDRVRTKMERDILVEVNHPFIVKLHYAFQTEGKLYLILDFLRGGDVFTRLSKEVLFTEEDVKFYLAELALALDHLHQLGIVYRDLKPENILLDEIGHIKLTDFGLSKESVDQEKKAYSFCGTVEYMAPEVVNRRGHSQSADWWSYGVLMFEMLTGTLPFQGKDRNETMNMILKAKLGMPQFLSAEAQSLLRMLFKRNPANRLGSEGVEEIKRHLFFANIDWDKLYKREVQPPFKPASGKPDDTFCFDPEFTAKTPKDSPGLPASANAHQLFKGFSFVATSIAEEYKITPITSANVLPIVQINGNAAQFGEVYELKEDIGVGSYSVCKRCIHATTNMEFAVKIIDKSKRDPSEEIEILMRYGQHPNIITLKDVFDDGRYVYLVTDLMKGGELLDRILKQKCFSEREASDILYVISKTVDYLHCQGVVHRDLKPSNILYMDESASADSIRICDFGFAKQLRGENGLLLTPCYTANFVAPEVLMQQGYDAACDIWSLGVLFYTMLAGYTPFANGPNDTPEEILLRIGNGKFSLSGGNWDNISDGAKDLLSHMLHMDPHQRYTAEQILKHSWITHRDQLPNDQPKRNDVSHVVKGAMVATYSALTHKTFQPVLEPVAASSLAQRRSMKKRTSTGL
Chain of Serine/threonine-protein kinase SIK2 (Homo sapiens) (Q9H0K1 whole entry, looked up, the tested form may be a part): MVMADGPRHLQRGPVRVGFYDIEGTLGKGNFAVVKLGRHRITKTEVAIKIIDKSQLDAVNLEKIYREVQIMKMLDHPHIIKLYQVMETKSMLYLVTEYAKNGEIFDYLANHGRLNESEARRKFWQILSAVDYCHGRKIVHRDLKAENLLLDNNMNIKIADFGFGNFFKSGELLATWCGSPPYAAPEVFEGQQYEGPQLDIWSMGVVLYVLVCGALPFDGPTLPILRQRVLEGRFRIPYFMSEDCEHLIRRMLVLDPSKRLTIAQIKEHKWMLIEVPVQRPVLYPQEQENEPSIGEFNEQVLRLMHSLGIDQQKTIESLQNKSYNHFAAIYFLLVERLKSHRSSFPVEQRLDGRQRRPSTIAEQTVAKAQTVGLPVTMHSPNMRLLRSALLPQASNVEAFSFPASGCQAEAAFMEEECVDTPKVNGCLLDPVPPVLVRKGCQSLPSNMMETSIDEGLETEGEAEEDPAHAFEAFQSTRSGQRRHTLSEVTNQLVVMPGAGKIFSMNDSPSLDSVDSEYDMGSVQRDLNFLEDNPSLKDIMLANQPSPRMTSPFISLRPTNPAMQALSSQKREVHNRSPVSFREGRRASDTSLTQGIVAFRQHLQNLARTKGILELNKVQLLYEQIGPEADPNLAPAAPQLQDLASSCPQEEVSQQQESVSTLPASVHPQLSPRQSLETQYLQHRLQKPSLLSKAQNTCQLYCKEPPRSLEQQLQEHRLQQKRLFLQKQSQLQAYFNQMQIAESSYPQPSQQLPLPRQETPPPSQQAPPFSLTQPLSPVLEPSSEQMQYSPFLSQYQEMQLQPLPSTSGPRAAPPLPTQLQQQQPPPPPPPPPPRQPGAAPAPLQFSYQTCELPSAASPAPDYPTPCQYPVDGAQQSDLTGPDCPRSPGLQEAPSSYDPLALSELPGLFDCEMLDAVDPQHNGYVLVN
Chain of Peripheral plasma membrane protein CASK (Homo sapiens) (O14936 whole entry, looked up, the tested form may be a part): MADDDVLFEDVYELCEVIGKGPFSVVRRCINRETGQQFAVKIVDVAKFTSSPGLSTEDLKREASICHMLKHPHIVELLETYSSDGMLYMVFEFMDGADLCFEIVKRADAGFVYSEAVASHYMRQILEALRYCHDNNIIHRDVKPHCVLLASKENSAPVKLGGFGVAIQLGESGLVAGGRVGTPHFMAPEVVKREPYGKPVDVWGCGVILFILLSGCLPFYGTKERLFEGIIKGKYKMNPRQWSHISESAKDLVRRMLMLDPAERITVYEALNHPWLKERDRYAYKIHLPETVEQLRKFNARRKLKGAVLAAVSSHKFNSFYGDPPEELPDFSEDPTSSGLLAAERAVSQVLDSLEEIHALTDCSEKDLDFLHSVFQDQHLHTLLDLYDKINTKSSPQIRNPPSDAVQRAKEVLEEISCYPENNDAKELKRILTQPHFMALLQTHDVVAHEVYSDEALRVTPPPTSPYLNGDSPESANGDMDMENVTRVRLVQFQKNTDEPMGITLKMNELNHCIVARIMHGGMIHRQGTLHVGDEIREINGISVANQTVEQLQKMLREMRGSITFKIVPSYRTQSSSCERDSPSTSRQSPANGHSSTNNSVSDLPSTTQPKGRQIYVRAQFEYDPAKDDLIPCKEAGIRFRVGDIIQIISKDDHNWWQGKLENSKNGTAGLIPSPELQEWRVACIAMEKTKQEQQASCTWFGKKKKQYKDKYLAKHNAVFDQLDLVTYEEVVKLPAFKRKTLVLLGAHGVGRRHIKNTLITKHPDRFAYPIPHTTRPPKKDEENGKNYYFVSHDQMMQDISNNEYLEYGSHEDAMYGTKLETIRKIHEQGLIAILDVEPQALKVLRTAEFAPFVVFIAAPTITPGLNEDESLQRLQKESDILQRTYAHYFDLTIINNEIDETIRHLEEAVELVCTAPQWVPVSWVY
Chain of Serine/threonine-protein kinase Sgk3 (Homo sapiens) (Q96BR1 whole entry, the tested form may be a part): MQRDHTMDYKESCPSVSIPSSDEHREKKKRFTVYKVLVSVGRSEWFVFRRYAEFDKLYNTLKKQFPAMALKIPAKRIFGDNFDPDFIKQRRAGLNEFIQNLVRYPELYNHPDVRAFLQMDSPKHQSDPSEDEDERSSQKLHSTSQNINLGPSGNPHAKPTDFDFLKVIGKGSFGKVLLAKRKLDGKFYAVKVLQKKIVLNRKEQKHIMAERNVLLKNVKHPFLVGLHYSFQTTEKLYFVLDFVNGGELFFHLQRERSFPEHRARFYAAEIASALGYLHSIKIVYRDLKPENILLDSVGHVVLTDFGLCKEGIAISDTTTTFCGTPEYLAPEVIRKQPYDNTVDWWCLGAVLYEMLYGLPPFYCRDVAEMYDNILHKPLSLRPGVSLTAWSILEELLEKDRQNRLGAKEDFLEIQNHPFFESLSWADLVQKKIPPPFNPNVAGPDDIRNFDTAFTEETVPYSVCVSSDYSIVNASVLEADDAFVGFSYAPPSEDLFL
Chain of Non-receptor tyrosine-protein kinase TYK2 (Homo sapiens) (P29597 whole entry, the tested form may be a part): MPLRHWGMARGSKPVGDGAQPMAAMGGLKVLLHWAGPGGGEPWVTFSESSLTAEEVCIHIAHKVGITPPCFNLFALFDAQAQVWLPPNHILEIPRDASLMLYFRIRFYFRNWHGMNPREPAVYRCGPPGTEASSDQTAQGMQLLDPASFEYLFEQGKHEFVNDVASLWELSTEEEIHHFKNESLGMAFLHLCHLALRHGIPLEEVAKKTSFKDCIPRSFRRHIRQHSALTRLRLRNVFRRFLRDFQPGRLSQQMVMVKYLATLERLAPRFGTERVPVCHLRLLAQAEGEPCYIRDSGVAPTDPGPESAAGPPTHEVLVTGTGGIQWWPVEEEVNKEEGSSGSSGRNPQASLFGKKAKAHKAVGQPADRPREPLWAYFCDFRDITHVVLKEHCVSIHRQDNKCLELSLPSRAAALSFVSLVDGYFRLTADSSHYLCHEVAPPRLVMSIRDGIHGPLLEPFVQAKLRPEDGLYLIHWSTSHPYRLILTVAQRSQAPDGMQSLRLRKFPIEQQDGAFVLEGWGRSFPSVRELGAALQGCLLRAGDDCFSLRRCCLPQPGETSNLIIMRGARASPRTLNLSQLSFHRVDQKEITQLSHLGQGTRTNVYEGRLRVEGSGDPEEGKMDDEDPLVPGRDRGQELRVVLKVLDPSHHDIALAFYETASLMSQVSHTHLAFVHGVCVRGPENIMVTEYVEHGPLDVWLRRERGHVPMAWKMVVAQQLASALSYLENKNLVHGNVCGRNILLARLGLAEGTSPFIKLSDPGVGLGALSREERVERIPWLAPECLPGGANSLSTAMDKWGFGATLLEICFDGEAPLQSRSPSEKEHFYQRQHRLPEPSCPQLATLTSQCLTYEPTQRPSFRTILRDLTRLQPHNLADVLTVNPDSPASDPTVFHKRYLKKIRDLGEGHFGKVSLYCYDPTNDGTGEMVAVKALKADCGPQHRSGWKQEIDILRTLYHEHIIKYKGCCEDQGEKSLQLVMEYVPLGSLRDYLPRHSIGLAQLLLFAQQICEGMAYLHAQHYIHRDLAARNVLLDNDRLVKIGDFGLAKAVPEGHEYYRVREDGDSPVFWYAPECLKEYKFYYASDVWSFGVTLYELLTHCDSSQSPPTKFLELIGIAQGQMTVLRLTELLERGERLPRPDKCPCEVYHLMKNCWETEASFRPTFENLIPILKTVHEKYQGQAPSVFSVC
Chain of Tyrosine-protein kinase Srms (Homo sapiens) (Q9H3Y6 whole entry, the tested form may be a part): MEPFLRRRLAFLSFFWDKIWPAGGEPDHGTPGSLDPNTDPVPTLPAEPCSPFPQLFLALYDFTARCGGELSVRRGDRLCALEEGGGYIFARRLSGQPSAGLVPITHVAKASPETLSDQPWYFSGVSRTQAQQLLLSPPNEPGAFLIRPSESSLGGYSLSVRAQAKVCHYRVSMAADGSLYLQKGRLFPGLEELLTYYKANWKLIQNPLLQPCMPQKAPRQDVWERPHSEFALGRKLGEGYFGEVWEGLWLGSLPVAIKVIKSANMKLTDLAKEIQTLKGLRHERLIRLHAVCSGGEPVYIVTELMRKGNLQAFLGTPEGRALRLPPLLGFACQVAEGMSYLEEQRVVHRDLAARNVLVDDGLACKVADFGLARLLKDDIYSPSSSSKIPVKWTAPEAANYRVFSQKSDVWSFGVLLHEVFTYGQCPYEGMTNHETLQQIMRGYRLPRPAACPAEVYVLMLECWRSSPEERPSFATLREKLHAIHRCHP

Row | Compound | inhibition [1] | inhibition [2] | inhibition [3] | inhibition [4] | inhibition [5] | inhibition [6] | inhibition [7] | inhibition [8] | inhibition [9] | inhibition [10] | inhibition [11] | inhibition [12] | inhibition at 10 µM [13] | inhibition [14]
1 | COc1cc(N2CCC(N3CCN(C)CC3)CC2)ccc1Nc1ncc2c(n1)N(C)c1ccccc1C(=O)N2C | 85% | 95% | 94% | 94% | 77% | 100% | 98% | 92% | 80% | 100% | 99% | 52% | 100% | 97%
2 | CCOc1cc(C(=O)N2CCC(N3CCN(C)CC3)CC2)ccc1Nc1ncc2c(n1)N(C1CCCC1)c1ccccc1C(=O)N2C |  |  | 100% | 52% |  |  | 100% | 100% | 100% |  | 100% |  | 100% | 100%
3 | COc1cc(C(=O)N2CCC(N3CCN(C)CC3)CC2)ccc1Nc1ncc2c(n1)N(C1CCCC1)c1ccccc1C(=O)N2C | 100% | 100% |  |  | 100% | 100% |  | 100% | 100% | 100% |  | 100% |  | 100%
